# Reference: patent publication US20030144249A1, “Use of organophosphorous compounds for producing a medicament for treating infections” (priority 2000, published 2003)
# Where a name gives a salt, the structure may show the parent alone. Read-outs that look alike come from different tables or passages of the source.
# What was measured:
# Solanum = experiment: Herbicidal activity, water, pre-emergence; assay type: in vivo
# Procedure: (§1) Herbicidal activity is determined using standard methods.
# (§2) Substances 1 to 8 listed on page 5 are again investigated.
# Echinochloa = experiment: Herbicidal activity, water, pre-emergence; assay type: in vivo
# Procedure: as §1, §2
# Rice = experiment: Herbicidal activity, water, pre-emergence; assay type: in vivo; conditions: Oryza sativa
# Procedure: as §1, §2
# Lepidium = experiment: Herbicidal activity, water, pre-emergence; assay type: in vivo
# Procedure: as §1, §2
# Plasmodium falciparum = experiment: Antimalarial activity, in vitro culture, [3H]-hypoxanthine incorporation; assay type: cell-based; conditions: 72 h, asynchronous culture, 48 h + 24 h with [3H]-hypoxanthine, read-out: IC50 (nM) of malaria culture (Plasmodium falciparum)
# Procedure: The antimalarial activity of substances 1 to 8 (see page 5) was determined using in vitro cultures of the causative organism of malaria, Plasmodium falciparum. 200 μl of an asynchronous Plasmodium falciparum culture with a 0.4% blood parasite content and a heamatocrit of 2% were loaded into each of the wells of a 96 well microtitre plate. A serial dilution series of the compounds was then prepared in steps of three between concentrations of 100 and 0.14 μmol l^−1. The plates were incubated at 37° C., 3% CO2 and 5% O2 over a period of 48 hours. 30 μl of medium supplemented with 27 μCi ml^−1 of [^3H]-hypoxanthine were then added to each well. After 24 hours' incubation, the parasites were harvested by filtration through glass fibre filters and the incorporated radioactivity was measured. Inhibition of parasite growth was measured as the percentage inhibition of tritium incorporation. Inhibition of parasite growth was expressed as the percentage inhibition of tritium incorporation relative to a comparison without the substance. The median inhibitory concentration (IC50) of the substance was determined by extrapolating the values.
# Cyperus esculentus [1] = experiment: Herbicidal activity, soil, pre-emergence; assay type: in vivo
# Procedure: as §1, §2
# Sinapis arvensis [2] = experiment: Herbicidal activity, soil, pre-emergence; assay type: in vivo; conditions: Mutarda arvensis
# Procedure: as §1, §2
# Beta vulgaris [3] = experiment: Herbicidal activity, soil, pre-emergence; assay type: in vivo
# Procedure: as §1, §2
# Setaria viridis [4] = experiment: Herbicidal activity, soil, pre-emergence; assay type: in vivo
# Procedure: as §1, §2
# Amaranthus retroflexus [5] = experiment: Herbicidal activity, soil, pre-emergence; assay type: in vivo
# Procedure: as §1, §2
# Galium aperine [6] = experiment: Herbicidal activity, soil, pre-emergence; assay type: in vivo
# Procedure: as §1, §2
# Abutilon theophrasti [7] = experiment: Herbicidal activity, soil, pre-emergence; assay type: in vivo
# Procedure: as §1, §2
# Zea mays [8] = experiment: Herbicidal activity, soil, pre-emergence; assay type: in vivo
# Procedure: as §1, §2
# Avena fatua [9] = experiment: Herbicidal activity, soil, pre-emergence; assay type: in vivo
# Procedure: as §1, §2
# Alopecurus myosuroides [10] = experiment: Herbicidal activity, soil, pre-emergence; assay type: in vivo
# Procedure: as §1, §2
# Xanthium strumarium [11] = experiment: Herbicidal activity, soil, pre-emergence; assay type: in vivo
# Procedure: as §1, §2
# [12] = target: T1, DOXP reductoisomerase from Helicobacter pylori (Helicobacter pylori, UniProt P56139); experiment: DOXP reductoisomerase inhibition (NADPH oxidation at 365 nm); assay type: biochemical
# T1 construct: made in house; host or cells: Helicobacter pylori (so in the source)
# T1 sequence (P56139 1-368): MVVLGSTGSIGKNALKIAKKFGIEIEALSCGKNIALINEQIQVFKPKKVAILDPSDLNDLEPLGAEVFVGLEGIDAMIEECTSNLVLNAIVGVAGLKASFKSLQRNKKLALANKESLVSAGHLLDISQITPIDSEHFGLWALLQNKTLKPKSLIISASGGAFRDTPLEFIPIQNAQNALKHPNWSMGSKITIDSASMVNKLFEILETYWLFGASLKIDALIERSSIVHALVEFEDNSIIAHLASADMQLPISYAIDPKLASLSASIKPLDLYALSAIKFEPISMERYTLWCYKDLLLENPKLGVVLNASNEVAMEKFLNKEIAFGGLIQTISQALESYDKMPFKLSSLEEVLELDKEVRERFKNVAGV
# Procedure: The DOXP reductoisomerase of Helicobacter pylori was expressed as a recombinant protein in Helicobacter pylori. The activity of DOXP reductoisomerase was determined in a batch containing 100 mM tris-HCl (pH=7.5), 1 mM MnCl2, 0.3 mM NADPH and 1 mM DOXP.
# The oxidation of NADPH was here measured at 365 nm in a spectrophotometer. The inhibition studies were performed by measuring the activity of DOXP reductoisomerase in the presence of compounds 1 to 8 (see page 5) at various concentrations between 0. 1 and 100 μmol l^−1.
# Cyperus esculentus [13] = experiment: Herbicidal activity, soil, post-emergence; assay type: in vivo
# Procedure: as §1, §2
# Sinapis arvensis [14] = experiment: Herbicidal activity, soil, post-emergence; assay type: in vivo; conditions: Mutarda arvensis
# Procedure: as §1, §2
# Beta vulgaris [15] = experiment: Herbicidal activity, soil, post-emergence; assay type: in vivo
# Procedure: as §1, §2
# Setaria viridis [16] = experiment: Herbicidal activity, soil, post-emergence; assay type: in vivo
# Procedure: as §1, §2
# Amaranthus retroflexus [17] = experiment: Herbicidal activity, soil, post-emergence; assay type: in vivo
# Procedure: as §1, §2
# Galium aperine [18] = experiment: Herbicidal activity, soil, post-emergence; assay type: in vivo
# Procedure: as §1, §2
# Abutilon theophrasti [19] = experiment: Herbicidal activity, soil, post-emergence; assay type: in vivo
# Procedure: as §1, §2
# Zea mays [20] = experiment: Herbicidal activity, soil, post-emergence; assay type: in vivo
# Procedure: as §1, §2
# Avena fatua [21] = experiment: Herbicidal activity, soil, post-emergence; assay type: in vivo
# Procedure: as §1, §2
# Alopecurus myosuroides [22] = experiment: Herbicidal activity, soil, post-emergence; assay type: in vivo
# Procedure: as §1, §2
# Xanthium strumarium [23] = experiment: Herbicidal activity, soil, post-emergence; assay type: in vivo
# Procedure: as §1, §2
# [24] = Soil, pre-emergence, 500 gram/hectare
# [25] = Soil, post-emergence, 500 gram/hectare
# [26] = read-out: Herbicidal activity, Cyperus esculentus
# [27] = read-out: Herbicidal activity, Sinapis arvensis
# [28] = read-out: Herbicidal activity, Beta vulgaris
# [29] = read-out: Herbicidal activity, Setaria viridis
# [30] = read-out: Herbicidal activity, Amaranthus retroflexus
# [31] = read-out: Herbicidal activity, Galium aperine
# [32] = read-out: Herbicidal activity, Abutilon theophrasti
# [33] = read-out: Herbicidal activity, Zea mays
# [34] = read-out: Herbicidal activity, Avena fatua
# [35] = read-out: Herbicidal activity, Alopecurus myosuroides
# [36] = read-out: Herbicidal activity, Xanthium strumarium
structure (smiles),measurement,setting,value
CCCC(=O)N(O)C(C)N(C)CC(O)P(C)(C)=O (stereo not shown) [Compound 1],pest or weed control at 1000 g/ha,"Solanum; Water, 1000 gram/hectare",0%
same,pest or weed control at 1000 g/ha,"Echinochloa; Water, 1000 gram/hectare",70%
same,plant injury at 1000 g/ha,"Rice; Water, 1000 gram/hectare",40%
same,pest or weed control at 1000 g/ha,"Lepidium; Water, 1000 gram/hectare",50%
same,IC50,Plasmodium falciparum,580 nM
same,pest or weed control at 500 g/ha,Cyperus esculentus [1]; [24],0%
same,pest or weed control at 500 g/ha,Sinapis arvensis [2]; [24],40%
same,plant injury at 500 g/ha,Beta vulgaris [3]; [24],30%
same,pest or weed control at 500 g/ha,Setaria viridis [4]; [24],0%
same,pest or weed control at 500 g/ha,Amaranthus retroflexus [5]; [24],0%
same,pest or weed control at 500 g/ha,Galium aperine [6]; [24],0%
same,pest or weed control at 500 g/ha,Abutilon theophrasti [7]; [24],0%
same,plant injury at 500 g/ha,Zea mays [8]; [24],0%
same,pest or weed control at 500 g/ha,Avena fatua [9]; [24],0%
same,pest or weed control at 500 g/ha,Alopecurus myosuroides [10]; [24],40%
same,pest or weed control at 500 g/ha,Xanthium strumarium [11]; [24],0%
same,IC50,"[12]; recombinant enzyme, 0.3 mM NADPH, 1 mM DOXP, pH 7.5, read-out: IC50 (nM) of DOXP reductoisomerase from Helicobacter pylori",80 nM
same,pest or weed control at 500 g/ha,Cyperus esculentus [13]; [25],0%
same,pest or weed control at 500 g/ha,Sinapis arvensis [14]; [25],95%
same,plant injury at 500 g/ha,Beta vulgaris [15]; [25],50%
same,pest or weed control at 500 g/ha,Setaria viridis [16]; [25],95%
same,pest or weed control at 500 g/ha,Amaranthus retroflexus [17]; [25],0%
same,pest or weed control at 500 g/ha,Galium aperine [18]; [25],60%
same,pest or weed control at 500 g/ha,Abutilon theophrasti [19]; [25],40%
same,plant injury at 500 g/ha,Zea mays [20]; [25],80%
same,pest or weed control at 500 g/ha,Avena fatua [21]; [25],50%
same,pest or weed control at 500 g/ha,Alopecurus myosuroides [22]; [25],60%
same,pest or weed control at 500 g/ha,Xanthium strumarium [23]; [25],60%
"CN(CN(O)C(=O)C1CCCCC1)CP(C)(=O)O [Compound 3, N-((N-Cyclohexanoyl-N-hydroxy)aminomethyl)-N-methyl(aminomethylphosphinic acid, sodium salt]",pest or weed control at 4000 g/ha,"Solanum; read-out: Herbicidal activity, Solanum",0%
same,pest or weed control at 4000 g/ha,"Echinochloa; read-out: Herbicidal activity, Echinochloa",50%
same,plant injury at 4000 g/ha,"Rice; read-out: Herbicidal activity, Rice",40%
same,pest or weed control at 4000 g/ha,"Lepidium; read-out: Herbicidal activity, Lepidium",50%
same,pest or weed control at 2000 g/ha,Cyperus esculentus [1]; [26],0%
same,pest or weed control at 2000 g/ha,Sinapis arvensis [2]; [27],30%
same,plant injury at 2000 g/ha,Beta vulgaris [3]; [28],30%
same,pest or weed control at 2000 g/ha,Setaria viridis [4]; [29],0%
same,pest or weed control at 2000 g/ha,Amaranthus retroflexus [5]; [30],0%
same,pest or weed control at 2000 g/ha,Galium aperine [6]; [31],0%
same,pest or weed control at 2000 g/ha,Abutilon theophrasti [7]; [32],0%
same,plant injury at 2000 g/ha,Zea mays [8]; [33],0%
same,pest or weed control at 2000 g/ha,Avena fatua [9]; [34],0%
same,pest or weed control at 2000 g/ha,Alopecurus myosuroides [10]; [35],30%
same,pest or weed control at 2000 g/ha,Xanthium strumarium [11]; [36],0%
same,IC50,[12],170 nM
same,pest or weed control at 2000 g/ha,Cyperus esculentus [13]; [26],0%
same,pest or weed control at 2000 g/ha,Sinapis arvensis [14]; [27],80%
same,plant injury at 2000 g/ha,Beta vulgaris [15]; [28],60%
same,pest or weed control at 2000 g/ha,Setaria viridis [16]; [29],70%
same,pest or weed control at 2000 g/ha,Amaranthus retroflexus [17]; [30],60%
same,pest or weed control at 2000 g/ha,Galium aperine [18]; [31],60%
same,pest or weed control at 2000 g/ha,Abutilon theophrasti [19]; [32],60%
same,plant injury at 2000 g/ha,Zea mays [20]; [33],70%
same,pest or weed control at 2000 g/ha,Avena fatua [21]; [34],70%
same,pest or weed control at 2000 g/ha,Alopecurus myosuroides [22]; [35],60%
same,pest or weed control at 2000 g/ha,Xanthium strumarium [23]; [36],60%
